The target of this assay is Vascular endothelial growth factor receptor 2 (Homo sapiens, UniProt P35968). The assay can be described thus: Inhibitory concentration against human Vascular endothelial growth factor receptor 2.
Chain of Vascular endothelial growth factor receptor 2 (P35968 whole entry): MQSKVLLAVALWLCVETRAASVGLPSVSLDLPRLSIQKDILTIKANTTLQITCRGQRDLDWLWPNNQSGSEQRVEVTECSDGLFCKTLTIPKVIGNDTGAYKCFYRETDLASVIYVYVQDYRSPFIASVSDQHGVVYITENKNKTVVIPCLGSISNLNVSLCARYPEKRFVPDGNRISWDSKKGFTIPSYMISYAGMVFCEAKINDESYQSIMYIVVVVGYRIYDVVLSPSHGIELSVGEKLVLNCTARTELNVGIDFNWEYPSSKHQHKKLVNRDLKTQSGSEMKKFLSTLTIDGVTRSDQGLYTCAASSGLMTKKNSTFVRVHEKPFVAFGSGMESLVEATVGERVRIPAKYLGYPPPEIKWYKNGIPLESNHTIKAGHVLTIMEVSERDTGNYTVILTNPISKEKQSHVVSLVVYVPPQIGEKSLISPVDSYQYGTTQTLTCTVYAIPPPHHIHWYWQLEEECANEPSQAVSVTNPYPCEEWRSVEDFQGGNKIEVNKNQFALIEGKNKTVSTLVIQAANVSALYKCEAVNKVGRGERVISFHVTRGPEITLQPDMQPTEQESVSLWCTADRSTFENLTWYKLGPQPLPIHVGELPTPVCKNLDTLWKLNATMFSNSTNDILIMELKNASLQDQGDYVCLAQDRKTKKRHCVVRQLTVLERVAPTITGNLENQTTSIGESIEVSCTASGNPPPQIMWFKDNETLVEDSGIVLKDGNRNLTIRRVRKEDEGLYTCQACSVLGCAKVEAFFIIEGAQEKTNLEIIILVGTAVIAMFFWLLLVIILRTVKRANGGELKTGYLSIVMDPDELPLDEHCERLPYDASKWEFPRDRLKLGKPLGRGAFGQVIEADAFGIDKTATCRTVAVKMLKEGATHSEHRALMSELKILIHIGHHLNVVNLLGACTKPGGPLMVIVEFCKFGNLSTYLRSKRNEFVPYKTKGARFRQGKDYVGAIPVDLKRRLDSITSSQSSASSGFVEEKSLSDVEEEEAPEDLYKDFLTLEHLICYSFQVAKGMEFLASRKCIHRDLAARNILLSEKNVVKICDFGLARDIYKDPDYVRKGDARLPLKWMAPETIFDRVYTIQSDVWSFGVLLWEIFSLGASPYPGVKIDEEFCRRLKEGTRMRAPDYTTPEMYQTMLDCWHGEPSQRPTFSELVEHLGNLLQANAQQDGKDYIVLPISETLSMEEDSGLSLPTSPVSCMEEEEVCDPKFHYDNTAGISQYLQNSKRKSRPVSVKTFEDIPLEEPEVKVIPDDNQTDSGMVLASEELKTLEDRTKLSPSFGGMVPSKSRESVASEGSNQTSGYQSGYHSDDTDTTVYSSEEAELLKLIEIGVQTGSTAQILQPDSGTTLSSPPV

On to `C/C(=C\C=C\CC(C)C(CC(=O)O)O[C@H]1O[C@@H](CO)[C@H](O)[C@H](O)[C@@H]1O)C(=O)O` (stereo partly specified), for which 5 µM corresponded to half-maximal inhibition (IC50).

The record behind these values is ChEMBL document CHEMBL1143483, “A new antitumor compound from the plant Oryctanthus sp. as a VEGF receptor binding inhibitor” (Bioorg Med Chem Lett, 2005).
